Structures can show the parent of a compound that is named as a salt.
target: T1, protein farnesyltransferase (Rattus norvegicus, UniProt Q02293+Q04631); test: in vitro inhibition of protein farnesyltransferase (scintillation proximity assay, biotin-K Ras B fragment); assay type: biochemical; details: at 1 × 10^-5 M
T1 construct: Rat brain protein farnesyltransferase activity is measured; from tissue; host or cells: rat brain; purified according to Reiss et al., Cell 62:81-88 (1990), steps one through three
From the text: The ability of the compounds of the invention to inhibit protein farnesyltransferase or protein geranylgeranyltransferase can be measured according to the method of Moores, et al., J. Biol. Chem. 266: 14603 (1991) or the method of Vogt, et al., J. Biol. Chem. 270:660-664 (1995). In addition, procedures for determination of the inhibition of farnesylation of the oncogene protein Ras are described by Goldstein, et al., J. Biol. Chem., 266:15575-15578 (1991) and by Singh in U.S. Pat. No. 5,245,061.
In addition, in vitro inhibition of protein farnesyltransferase may be measured by the following procedure. Rat brain protein farnesyltransferase activity is measured using an Amersham Life Science commercial scintillation proximity assay kit and substituting a biotin-K Ras B fragment (biotin-[…]CO2 H), 0.1 mM final concentration, for the biotin-lamin substrate provided by Amersham. The enzyme is purified according to Reiss, Y., et al., Cell, 62: 81-88 (1990), utilizing steps one through three.
The % inhibition of protein farnesyltransferase was determined for representative compounds of the invention.

First: CSCC[C@H](NC(=O)c1ccc(CNc2ccc(C(=O)c3ccccc3)cc2)cc1-c1ccccc1)C(=O)O [Example 702]
Second: CSCC[C@H](NC(=O)c1ccc(CNc2cc(C(=O)O)cc(C(=O)O)c2)cc1-c1ccccc1)C(=O)O [Example 710]
The inhibition at 10 µM of the first is higher: 79% for the first, 45% for the second.

First: CSCC[C@H](NC(=O)c1ccc(CNc2ccc(C3CCCCC3)cc2)cc1-c1ccccc1)C(=O)O [Example 699]
Second: CSCC[C@H](NC(=O)c1ccc(CNc2cc(C(C)(C)C)[nH]n2)cc1-c1ccccc1)C(=O)O [Example 381]
The inhibition at 10 µM of the first is lower: 74% for the first, 79% for the second.

same assay, conditions: at 1 × 10^-6 M

`CSCC[C@H](NC(=O)c1ccc(CCc2ccc3ccccc3c2)cc1-c1ccccc1C)C(=O)O` [Example 468] and `CSCC[C@H](NC(=O)c1ccc(CCCC(=O)c2ccc3ccccc3c2)cc1-c1ccccc1C)C(=O)O` [Example 473] are the same in “% inhibition of farnesyltransferase” value: 96% for the first, 96% for the second.

Going from `Cc1ccccc1-c1cc(CN(C2CC2)C2(CC3CCCCC3)CCC2)ccc1C(=O)N[C@@H](CCS(C)(=O)=O)C(=O)O` [Example 334] to `CCCCN(C)N(CCC1CCCCC1)Cc1ccc(C(=O)N[C@@H](CCS(C)(=O)=O)C(=O)O)c(-c2ccccc2C)c1` [Example 300], the “% inhibition of farnesyltransferase” value falls from 93% to 22%.

Compared with `CSCC[C@H](NC(=O)c1ccc(/C=C/CC(O)c2ccc3ccccc3c2)cc1-c1ccccc1C)C(=O)O` (stereo partly drawn) [Example 474], `CSCC[C@H](NC(=O)c1ccc(CNC(C)(C)Cc2ccccc2)cc1-c1ccccc1C)C(=O)O` [Example 307] is lower in “% inhibition of farnesyltransferase” value: 92% for the first, 82% for the second.

Compared with `CSCC[C@H](NC(=O)c1ccc(CN2C(=O)OC[C@@H]2CC2CCCCC2)cc1-c1ccccc1C)C(=O)O` [Example 349], `CSCC[C@H](NC(=O)c1ccc(CN(C(C)C)C2(Cc3ccccc3)CCC2)cc1-c1ccccc1C)C(=O)O` [Example 331] is lower in “% inhibition of farnesyltransferase” value: 99% for the first, 98% for the second.

Compared with `CSCC[C@H](NC(=O)c1ccc(CSCc2ccc(C)cc2)cc1-c1ccccc1C)C(=O)[O-].[Li+]` [Example 556], `CSCC[C@H](NC(=O)c1ccc(COC2CCN(C(=O)OC(C)(C)C)CC2)cc1-c1ccccc1C)C(=O)[O-].[Li+]` [Example 808] is lower in “% inhibition of farnesyltransferase” value: 99% for the first, 88% for the second.

same assay, conditions: at 1 × 10^-6 M; read-out: % inhibition of farnesyltransferase

Compared with `CSCC[C@H](NC(=O)c1ccc(CN(Cc2ccccc2)Cc2ccccc2)cc1-c1ccccc1C)C(=O)O` [Example 512, N-[4-N,N-dibenzylaminomethyl-2-(2-methylphenyl)benzoyl]methionine lithium salt], `CSCC[C@H](NC(=O)c1ccc(CN(C)CCc2ccccc2)cc1-c1ccccc1C)C(=O)O` [Example 516, N-[4-N-methyl-N-(2-phenyethyl)aminomethyl-2-(2-methylphenyl)benzoyl]methionine lithium salt] is higher in inhibition at 1 µM: 94% for the first, 95% for the second.

Going from `CSCC[C@H](NC(=O)c1ccc(CN(C(=O)c2ccccc2)C(CC2CCCCC2)CC2CCCCC2)cc1-c1ccccc1C)C(=O)O` [Example 910, N-[4-(N-benzoyl-N-(1,3-Dicyclohexylpropan-2-yl)aminomethyl)-2-(2-methylphenyl)-benzoyl]methionine] to `CSCC[C@H](NC(=O)c1ccc(CN(Cc2ccco2)C(C)C)cc1-c1ccccc1C)C(=O)O` [Example 831, N-[4-N-(furan-2-ylmethyl)-N-isopropylaminomethyl-2-(2-methylphenyl)benzoyl]methionine lithium salt], the inhibition at 1 µM rises from 42% to 92%.

First: COc1ccc(CC(=O)Nc2ccc(C(=O)N[C@@H](CCSC)C(=O)O)c(-c3ccccc3C)c2)cc1 [Example 542, N-[4-N-(4'-methoxyphenylacetyl)amino-2-(2-methylphenyl)benzoyl]methionine lithium salt]
Second: CSCC[C@H](NC(=O)c1ccc(CNc2ccc(N3CCCCC3)cc2)cc1-c1ccccc1)C(=O)O [Example 697]
The inhibition at 1 µM of the first is higher: 67% for the first, 39% for the second.

First: CSCCC(CO)NCc1ccc(C(=O)N[C@@H](CCSC)C(=O)O)c(-c2ccccc2)c1 (stereo partly drawn) [Example 633]
Second: CSCC[C@H](NC(=O)c1ccc(CN(CCC#N)Cc2ccccc2)cc1-c1ccccc1)C(=O)O [Example 649]
The inhibition at 1 µM of the first is lower: 32% for the first, 86% for the second.

same assay, conditions: at 1 × 10^-7 M

First: CSCC[C@H](NC(=O)c1ccc(CSc2nc(C)cc(C)n2)cc1-c1ccccc1C)C(=O)O [Example 743]
Second: CSCC[C@H](NC(=O)c1ccc(CSc2nc3cc(C)ccc3[nH]2)cc1-c1ccccc1C)C(=O)O [Example 733]
The “% inhibition of farnesyltransferase” value of the first is lower: 51% for the first, 60% for the second.

Compared with `CSCC[C@H](NC(=O)c1ccc(COCc2cnc(-c3ccc(F)cc3)s2)cc1-c1ccccc1C)C(=O)O` [Example 900], `CSCC[C@H](NC(=O)c1ccc(COCc2cccc3ccccc23)cc1-c1ccccc1C)C(=O)[O-].[Li+]` [Example 584] is higher in “% inhibition of farnesyltransferase” value: 95% for the first, 96% for the second.

With `CSCC[C@H](NC(=O)c1ccc(CN2CCCC(OCC3CCCCC3)C2)cc1-c1ccccc1C)C(=O)O` (stereo partly drawn) [Example 990] the “% inhibition of farnesyltransferase” value was 84%.

same assay, conditions: at 1 × 10^-7 M; read-out: % inhibition of farnesyltransferase

Compared with `CCCCN(CCCC)Cc1ccc(C(=O)N[C@@H](CCSC)C(=O)O)c(-c2ccccc2C)c1` [Example 917, N-[4-(N,N-Dibutylaminomethyl)-2-(2-methylphenyl)benzoyl]methionine], `CSCC[C@H](NC(=O)c1ccc(CN(Cc2ccccc2)Cc2cncs2)cc1-c1ccccc1C)C(=O)O` [Example 549, N-[4-N-benzyl-N-(thiazol-5-ylmethyl)aminomethyl-2-(2-methylphenyl)benzoyl]methionine] is higher in inhibition at 0.1 µM: 78% for the first, 98% for the second.

`CCSC[C@H](CC1CCCCC1)N(Cc1ccc(C(=O)N[C@@H](CCSC)C(=O)O)c(-c2ccccc2C)c1)C(=O)c1ccccc1` [Example 949, N-[4-N-Benzoyl-N-(3-Cyclohexyl-1-ethylthiopropan-2-yl)aminomethyl-2-(2-methylphenyl)-benzoyl]methionine] was tested, and the inhibition at 0.1 µM was 57%.

same assay, conditions: at 1 × 10^-8 M

First: CCCCC(OCc1ccc(C(=O)N[C@@H](CCSC)C(=O)[O-])c(-c2ccccc2C)c1)c1ccc(-c2ccc(Cl)cc2)o1.[Li+] (stereo partly drawn) [Example 826]
Second: CSCC[C@H](NC(=O)c1ccc(COCc2cnc(-c3ccccc3Cl)o2)cc1-c1ccccc1C)C(=O)[O-].[Li+] [Example 892]
The “% inhibition of farnesyltransferase” value of the first is higher: 92% for the first, 59% for the second.

In the case of `CSCC[C@H](NC(=O)c1ccc(CO[C@H](CSc2ccccc2)CC2CCCCC2)cc1-c1ccccc1C)C(=O)O` [Example 884], the “% inhibition of farnesyltransferase” value is reported as 94%.

same assay, conditions: at 1 × 10^-8 M; read-out: % inhibition of farnesyltransferase

Molecule `CSCC[C@H](NC(=O)c1ccc(CN(CCC2CCCCC2)C2CC2)cc1-c1ccccc1C)C(=O)O` [Example 880, N-[4-(N-2-Cyclohexylethyl-N-cyclopropylaminomethyl)-2-(2-methylphenyl)benzoyl]methionine] has an inhibition at 0.01 µM of 95%.

same assay, conditions: read-out: % inhibition of farnesyltransferase

First: CSCC[C@H](NC(=O)c1ccc(CN(CCC2CCCCC2)Cc2ccccc2)cc1-c1ccccc1C)C(=O)O [Example 605, N-[4-(N-benzyl-N-(2-cyclohexylethyl)aminomethyl)-2-(2-methylphenyl)benzoyl]methionine Lithium Salt]
Second: CSCC[C@H](NC(=O)c1ccc(CN(Cc2ccccc2)c2cccc(SC)c2)cc1-c1ccccc1C)C(=O)O [Example 851, N-[4-(N-benzyl-N-(3-methylthiophenyl)aminomethyl)-2-(2-methylphenyl)benzoyl]methionine lithium salt]
The inhibition at 0.01 µM of the first is lower: 68% for the first, 82% for the second.

From US6310095A, “Inhibitors of protein isoprenyl transferases” (University of Pittsburgh, priority 1998, dated 2001)
